Data published in patent US5096898A, “Bile acid unsaturated derivatives and pharmaceutical compositions containing them” (Giuliani S.p.A., priority 1990, dated 1992).
Values after ≈ are worked out from the molar mass of the structure shown. “Also recorded” adds a separate entry of the source. Read-outs that look alike come from different tables or passages of the source. Each block holds one compound with its values, some of them ahead of it.

Legend:
[1] = Effect on bile flow and bile lipid secretion; format: in vivo, rat; conditions: for SMAB (maximum secretion) / SMPL (maximum bile lipid secretion) / SMVo = maximum bile flow / SMXOL (maximum bile lipid secretion): intravenous, 6 μmoles/min/kg during 1 hour (stated for TOL-UDCA)
Method: (§1) Trans 3α,7β-dihydroxy-5β-24-cholen-27-oic acid (TOL-UDCA) was studied compared with ursodeoxycholic acid and the glycine and taurine conjugated thereof also in the following pharmacological tests:
effects on the secretion of bile, bile acids, cholesterol and phospholipids.
(§2) TOL-UDCA was administered to rat by intravenous and intraduodenal routes at a dose of 6 μmoles/min/kg during 1 hour.
SMVo = maximum bile flow
SM = maximum bile lipid secretion

[2] = Physico-chemical characteristics (Table 1); format: physicochemical; parameters: Critical micellar concentration (CMC): unit not given here; conditions: for chromatographic logP: c18 hplc
[3] = Hepatic absorption, metabolism and biliary secretion, intravenous; format: in vivo; conditions: rat
Method: as §1
hepatic and intestinal metabolism (in vivo and in vitro)
hepatic and intestinal absorption
as §2

[4] = read-out: Retention times with C18-HPLC (K') (converted)

Structure (SMILES): C[C@H](CCC(=O)NCC(=O)O)[C@H]1CC[C@H]2[C@@H]3[C@@H](O)C[C@@H]4C[C@H](O)CC[C@]4(C)[C@H]3CC[C@]12C [G-UDCA]
SMAB (maximum secretion) [1]: 2,10 μmol/min/kg | SMPL (maximum bile lipid secretion) [1]: 0,39 μmol/min/kg | SMVo = maximum bile flow [1]: 2.4 mL/h/kg | SMXOL (maximum bile lipid secretion) [1]: 0,028 μmol/min/kg | Critical micellar concentration (CMC) [2]: 12 | pKa [2]: 3.9 | solubility [2]: 3 µM (≈ 1.35 µg/mL) | chromatographic logP [2, 4]: 0.0253

Critical micellar concentration (CMC) [2]: 8 | chromatographic logP [2, 4]: -0.00877 | pKa ([2]; read-out: pKa): 2
Structure (SMILES): C[C@H](CCC(=O)NCCS(=O)(=O)O)[C@H]1CC[C@H]2[C@@H]3[C@@H](O)C[C@@H]4C[C@H](O)CC[C@]4(C)[C@H]3CC[C@]12C [T-UDCA]
SMAB (maximum secretion) [1]: 2,40 μmol/min/kg | SMPL (maximum bile lipid secretion) [1]: 0,18 μmol/min/kg | SMVo = maximum bile flow [1]: 2.1 mL/h/kg | SMXOL (maximum bile lipid secretion) [1]: 0,014 μmol/min/kg

Structure (SMILES): C[C@H](CC/C=C/CC(=O)O)[C@H]1CC[C@H]2[C@@H]3[C@@H](O)C[C@@H]4C[C@H](O)CC[C@]4(C)[C@H]3CC[C@]12C [TOL-UDCA, Trans-3α,7β-dihydroxy-5β-24-cholen-27-oic acid]
bile flow / choleretic effect (in words) ([1]; compared with UDCA natural analogs and conjugated forms): increases bile flow and this effect is stronger than the one of UDCA natural analogs and of the conjugated forms thereof; also recorded: strong choleretic effect after intravenous or intraduodenal administrations, which effect is higher than that of UDCA | SMAB (maximum secretion) [1]: 1,02 μmol/min/kg | SMPL (maximum bile lipid secretion) [1]: 0,12 μmol/min/kg | SMVo = maximum bile flow [1]: 5.4 mL/h/kg | SMXOL (maximum bile lipid secretion) [1]: 0,020 μmol/min/kg | kinetic of recovery in the bile ([3]; intravenous, 6 μmoles/min/kg during 1 hour): recovered in the bile with a slow kinetic | accumulation in the hepatic cells ([3]; in vivo): accumulates in the hepatic cells | disappearance from the bile ([3]; in vivo): disappears from the bile with a slow kinetic | presence in bile 2 hours after end of infusion ([3]; in vivo): a noticeable amount of this bile acid is still present 2 hours after | Critical micellar concentration (CMC) [2]: 5 | pKa [2]: 5.02 | solubility [2]: 10 µM (≈ 4.33 µg/mL) | chromatographic logP [2]: 0.96

Structure (SMILES): C[C@H](CCC(=O)O)[C@H]1CC[C@H]2[C@@H]3[C@@H](O)C[C@@H]4C[C@H](O)CC[C@]4(C)[C@H]3CC[C@]12C [UDCA, ursodeoxycholic acid]
SMAB (maximum secretion) [1]: 3,02 μmol/min/kg | SMPL (maximum bile lipid secretion) [1]: 0,22 μmol/min/kg | SMVo = maximum bile flow [1]: 3.6 mL/h/kg | SMXOL (maximum bile lipid secretion) [1]: 0,022 μmol/min/kg | Critical micellar concentration (CMC) [2]: 19 | chromatographic logP [2, 4]: 0.563 | solubility ([2]; read-out: Solubility): 9 µM (≈ 3.53 µg/mL) | pKa ([2]; read-out: pKa): 5.06
